In patent US20250154134A1, “COMPOUND AS FAK INHIBITOR AND USE THEREOF” (WIGEN BIOMEDICINE TECHNOLOGY (SHANGHAI) CO., LTD., priority 2022, published 2025) one finds IC50 data, which are given here for 34 compounds.

The target of one test is FAK recombinant protein (Homo sapiens (Human), UniProt Q05397). The experiment in a line: Inhibitory activity against FAK enzyme (HTRF, TK substrate). The test is classed as biochemical. The method, then: A compound serially diluted with DMSO was mixed with a FAK recombinant protein. After the mixture was left to stand at room temperature for 10 min, a biotin-labeled TK substrate (TK) and ATP were added. […] The inhibition percentage and IC50 of the compound were calculated compared to the DMSO control group.

The subject of test [1] is PC3 cells. The experiment in a line: PC3 cell proliferation, 2D activity assay (Cell Titer-Lumi, 72 h). To be noted: Homo sapiens, PC-3, read-out: 2D inhibitory activity against PC3 cells IC50. The test is classed as cell-based, human. On the procedure:
(§1) 2D activity assay: 1200 PC3 cells were seeded in a 96-well plate. After overnight adherence culture, A compound serially diluted was added. […] The growth of the cells was evaluated, and the IC50 of the compound inhibiting cell growth was calculated. 3D activity assay: PC3 cells were seeded in a 96-well plate at 1200 cells/well, and 3D culture was performed. 14 days after a compound serially diluted was added, the growth of the cells was measured. The inhibition percentage and IC50 of the compound were calculated compared to the DMSO control group.

For test [2], the system named is PC3 cells. The experiment in a line: PC3 cell proliferation, 3D activity assay (3D culture, 14 days). The test is classed as cell-based, human. To be noted: Homo sapiens, PC-3, 336 h, read-out: 3D inhibitory activity against PC3 cells IC50. On the procedure:
as §1

Chain of FAK recombinant protein (Q05397 whole entry): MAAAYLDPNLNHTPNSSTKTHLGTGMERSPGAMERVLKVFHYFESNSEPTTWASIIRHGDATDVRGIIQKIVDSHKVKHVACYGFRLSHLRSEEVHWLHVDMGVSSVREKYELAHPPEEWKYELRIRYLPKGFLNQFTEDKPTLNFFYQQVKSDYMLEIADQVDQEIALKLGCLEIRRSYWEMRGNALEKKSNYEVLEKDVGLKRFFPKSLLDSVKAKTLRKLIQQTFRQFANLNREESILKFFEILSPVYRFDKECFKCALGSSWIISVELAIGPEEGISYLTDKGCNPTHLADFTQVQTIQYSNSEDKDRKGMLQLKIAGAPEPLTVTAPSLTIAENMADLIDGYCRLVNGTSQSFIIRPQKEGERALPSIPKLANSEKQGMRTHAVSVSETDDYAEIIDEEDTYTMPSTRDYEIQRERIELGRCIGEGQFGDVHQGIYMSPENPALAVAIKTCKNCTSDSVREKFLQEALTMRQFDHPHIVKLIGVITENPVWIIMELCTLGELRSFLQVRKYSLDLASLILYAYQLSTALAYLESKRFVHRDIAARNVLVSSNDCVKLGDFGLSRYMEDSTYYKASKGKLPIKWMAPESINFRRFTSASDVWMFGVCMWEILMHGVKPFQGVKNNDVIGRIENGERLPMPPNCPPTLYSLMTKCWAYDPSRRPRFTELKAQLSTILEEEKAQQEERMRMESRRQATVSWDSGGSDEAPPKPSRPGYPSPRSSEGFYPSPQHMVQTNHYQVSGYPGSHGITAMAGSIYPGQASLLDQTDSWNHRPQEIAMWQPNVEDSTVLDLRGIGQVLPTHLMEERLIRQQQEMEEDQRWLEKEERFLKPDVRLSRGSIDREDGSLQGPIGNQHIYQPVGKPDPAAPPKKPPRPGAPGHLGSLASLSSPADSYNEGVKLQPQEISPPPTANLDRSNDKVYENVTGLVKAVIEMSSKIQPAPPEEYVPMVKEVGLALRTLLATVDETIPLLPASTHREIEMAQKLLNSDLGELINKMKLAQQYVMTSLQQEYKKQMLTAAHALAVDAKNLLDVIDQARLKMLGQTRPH

One may read the IC50 as the concentration that gives 50% inhibition. On to `COc1cc(C2CCN(C)CC2)c(F)cc1Nc1ncc(Br)c(Oc2cccc3c2C(=O)N(C)C32CC2)n1` [Compound 180], for which the IC50 on FAK recombinant protein was under 0.02 µM; with PC3 cells [1] it was over 2 µM; in the test with PC3 cells [2] it was 0.005 to 0.05 µM.
`COc1cc(C(=O)NC2CCN(C)CC2F)ccc1Nc1ncc(C(F)(F)F)c(Oc2cccc3c2C(=O)N(C)C32CC2)n1` (stereo not drawn) [Compound 33]: the IC50 is under 0.02 µM at FAK recombinant protein, over 2 µM with PC3 cells [1] and under 0.005 µM in the test on PC3 cells [2].
For the compound `C=Cc1cc(C(=O)NC2CCN(C)CC2)ccc1Nc1ncc(C(F)(F)F)c(Oc2cccc3c2C(=O)N(C)C32CC2)n1` [Compound 49], the IC50 on FAK recombinant protein is under 0.02 µM; with PC3 cells [1], over 2 µM; in the test with PC3 cells [2], 0.005 to 0.05 µM.
Consider `COc1cc(N2CC3(CCN(C)CC3)C2)c(F)cc1Nc1ncc(Cl)c(Oc2cccc3c2C(=O)N(C)C32CCCCC2)n1` [Compound 211], for which the IC50 on FAK recombinant protein was under 0.02 µM; with PC3 cells [1], over 2 µM; with PC3 cells [2], over 0.05 µM.
With `COc1cc(C(=O)NC2CCn3cnnc3C2)ccc1Nc1ncc(C(F)(F)F)c(Oc2cccc3c2C(=O)N(C)C32CC2)n1` (stereo not drawn) [Compound 32], the IC50 was under 0.02 µM at FAK recombinant protein, over 2 µM with PC3 cells [1] and 0.005 to 0.05 µM in the test on PC3 cells [2].
For the compound `COc1cc2c(cc1Nc1ncc(C(F)(F)F)c(Oc3cccc4c3C(=O)N(C)C43CC3)n1)CN(C)CC2` [Compound 86], the IC50 on FAK recombinant protein was under 0.02 µM; in the test with PC3 cells [1], over 2 µM; in the test on PC3 cells [2], 0.005 to 0.05 µM.
Take `COc1cc(C(=O)NC2CCC3(CC2)CCN(C)C3)ccc1Nc1ncc(C(F)(F)F)c(Cc2cccc3c2C(=O)N(C)C32CC2)n1` (stereo not drawn) [Compound 106]: the IC50 on FAK recombinant protein is under 0.02 µM; in the test on PC3 cells [1] it was over 2 µM; in the test on PC3 cells [2] it was 0.005 to 0.05 µM.
`[2H]C([2H])([2H])N1CCC2(CC1)CC(NC(=O)c1ccc(Nc3ncc(C(F)(F)F)c(Oc4cccc5c4C(=O)N(C)C54CC4)n3)c(OC)c1)C2` [Compound 45]: the IC50 was under 0.02 µM at FAK recombinant protein, over 2 µM with PC3 cells [1] and under 0.005 µM with PC3 cells [2].
Consider `COc1cc(C(=O)NC2CCC3(CCN(C)CC3)C2)ccc1Nc1ncc(C(F)(F)F)c(Oc2cccc3c2C(=O)N(C)C32CC2)n1` (stereo not drawn) [Compound 19], for which the IC50 was under 0.02 µM at FAK recombinant protein, over 2 µM with PC3 cells [1] and 0.005 to 0.05 µM in the test with PC3 cells [2].
Regarding `COc1cc(C(=O)NC2CCN(C)CC2)c(F)cc1Nc1ncc(Cl)c(Oc2cccc3c2C(=O)N(C)C32COC2)n1` [Compound 218], the IC50 was under 0.02 µM at FAK recombinant protein, over 2 µM in the test with PC3 cells [1] and over 0.05 µM in the test on PC3 cells [2].
Take `COc1cc(N2CCN(C)CC2)c(F)cc1Nc1ncc(C(F)(F)F)c(Oc2cccc3c2C(=O)N(C)C32CC2)n1` [Compound 122]: the figures for the IC50 on FAK recombinant protein, with PC3 cells [1] and with PC3 cells [2] were under 0.02 µM, over 2 µM and under 0.005 µM, respectively.
Take `COc1cc(C(=O)NC2CCC3(CC2)CCN3C)c(F)cc1Nc1ncc(C(F)(F)F)c(Oc2cccc3c2C(=O)N(C)C32CC2)n1` (stereo not drawn) [Compound 14]: the IC50 is under 0.02 µM at FAK recombinant protein, over 2 µM with PC3 cells [1] and under 0.005 µM in the test on PC3 cells [2].
In the case of `COc1cc(C(=O)NC2CCN3CCN=C3C2)ccc1Nc1ncc(C(F)(F)F)c(Oc2cccc3c2C(=O)N(C)C32CC2)n1` (stereo not drawn) [Compound 30], the IC50 was under 0.02 µM on FAK recombinant protein, over 2 µM in the test on PC3 cells [1] and 0.005 to 0.05 µM in the test on PC3 cells [2].
For `COc1cc(CN2CCN(C)CC2)ccc1Nc1ncc(Cl)c(Oc2cccc3c2C(=O)N(C)C32CC2)n1` [Compound 153, 4′-((5-chloro-2-((2-methoxy-4-((4-methylpiperazin-1-yl)methyl)phenyl)amino)pyrimidin-4-yl)oxy)-2′-methylspiro[cyclopropane-1,1′-isoindolin]-3′-one], the IC50 on FAK recombinant protein was under 0.02 µM; in the test with PC3 cells [1], over 2 µM; in the test on PC3 cells [2], under 0.005 µM.
For `COc1cc(N2CCC3(CC2)CN(C)C3)ccc1Nc1ncc(Br)c(Oc2cccc3c2C(=O)N(C)C32CC2)n1` [Compound 190] the same measures were under 0.02 µM, over 2 µM and under 0.005 µM.
For `CN1C(=O)c2c(Oc3nc(Nc4cnn5c4COCC5)ncc3C(F)(F)F)cccc2C12CC2` [Compound 95], in that order: under 0.02 µM, over 2 µM and 0.005 to 0.05 µM.
For `COc1cc(N2CC3(CN(C)C3)C2)c(F)cc1Nc1ncc(C(F)(F)F)c(Oc2cccc3c2C(=O)N(C)C32CC2)n1` [Compound 125], in that order: under 0.02 µM, over 2 µM and under 0.005 µM.
Regarding `[2H]C([2H])([2H])N1CCC(C)(NC(=O)c2ccc(Nc3ncc(C(F)(F)F)c(Oc4cccc5c4C(=O)N(C)C54CC4)n3)c(OC)c2)CC1` [Compound 42], the IC50 on FAK recombinant protein was under 0.02 µM; with PC3 cells [1] it was over 2 µM; in the test with PC3 cells [2], under 0.005 µM.
For `CCN1CCC2(CC1)CC(NC(=O)c1ccc(Nc3ncc(C(F)(F)F)c(Oc4cccc5c4C(=O)N(C)C54CC4)n3)c(OC)c1)C2` [Compound 46] the same measures were under 0.02 µM, over 2 µM and 0.005 to 0.05 µM.
For `COc1cc(C(=O)NC2CCC3(CC2)CCN(C)CC3)c(F)cc1Nc1ncc(C(F)(F)F)c(Oc2cccc3c2C(=O)N(C)C32CC2)n1` [Compound 22], the half-inhibitory concentration (IC50) at FAK recombinant protein is under 0.02 µM; in the test on PC3 cells [1] it was over 2 µM; in the test on PC3 cells [2], 0.005 to 0.05 µM.
In the case of `COc1cc(N2CCC3(CCN(C)C3)C2)c(F)cc1Nc1ncc(C(F)(F)F)c(Oc2cccc3c2C(=O)N(C)C32CC2)n1` (stereo not drawn) [Compound 127], the IC50 is under 0.02 µM on FAK recombinant protein, over 2 µM with PC3 cells [1] and under 0.005 µM in the test with PC3 cells [2].
For `Cc1cn(C2CCN(C)CC2)nc1Nc1ncc(C(F)(F)F)c(Oc2cccc3c2C(=O)N(C)C32CC2)n1` [Compound 98], the figures for the IC50 on FAK recombinant protein, in the test with PC3 cells [1] and in the test with PC3 cells [2] were under 0.02 µM, over 2 µM and 0.005 to 0.05 µM, respectively.
In the case of `COc1cc(C(=O)NC2CCN(C)CC2)ccc1Nc1ncc(C(F)(F)F)c(Cc2cccc3c2C(=O)N(C)C32CC2)n1` [Compound 99, 3-methoxy-4-((4-((2′-methyl-3′-oxospiro[cyclopropane-1,1′-isoindolin]-4′-yl)methyl)-5-(trifluoromethyl)pyrimidin-2-yl)amino)-N-(1-methylpiperidin-4-yl)benzamide], the IC50 is under 0.02 µM at FAK recombinant protein, over 2 µM in the test on PC3 cells [1] and 0.005 to 0.05 µM with PC3 cells [2].
As for `COc1cc(N2CCNCC2)ccc1Nc1ncc(C(F)(F)F)c(Oc2cccc3c2C(=O)N(C)C32CC2)n1` [Compound 74, 4′-((2-((2-methoxy-4-(piperazin-1-yl)phenyl)amino)-5-(trifluoromethyl)pyrimidin-4-yl)oxy)-2′-methylspiro[cyclopropane-1,1′-isoindolin]-3′-one], the IC50 on FAK recombinant protein is under 0.02 µM; with PC3 cells [1] it was over 2 µM; in the test on PC3 cells [2], 0.005 to 0.05 µM.
As to `COc1cc(N2CC3(CCN(C)CC3)CC2=O)ccc1Nc1ncc(C(F)(F)F)c(Oc2cccc3c2C(=O)N(C)C32CC2)n1` [Compound 63], the figures for the IC50 at FAK recombinant protein, in the test on PC3 cells [1] and in the test with PC3 cells [2] were under 0.02 µM, over 2 µM and under 0.005 µM, respectively.
For the compound `COCCN1CCN(c2ccc(Nc3ncc(Cl)c(Oc4cccc5c4C(=O)N(C)C54CC4)n3)c(OC)c2)CC1` [Compound 142], the IC50 at FAK recombinant protein was under 0.02 µM; in the test on PC3 cells [1], over 2 µM; in the test with PC3 cells [2], under 0.005 µM.
Consider `CN1CCn2nc(Nc3ncc(C(F)(F)F)c(Oc4cccc5c4C(=O)N(C)C54CC4)n3)cc2C1` [Compound 96], for which the IC50 is under 0.02 µM at FAK recombinant protein, over 2 µM in the test with PC3 cells [1] and under 0.005 µM with PC3 cells [2].
For `COc1cc(N2CCC3(CC2)CN(C)C3)c(F)cc1Nc1ncc(Cl)c(Oc2cccc3c2C(=O)N(C)C32CC2)n1` [Compound 148], in that order: under 0.02 µM, over 2 µM and under 0.005 µM.
For `COc1cc(C(=O)NC2CCC3(CCN(C)CC3)C2)c(F)cc1Nc1ncc(C(F)(F)F)c(Oc2cccc3c2C(=O)N(C)C32CC2)n1` (stereo not drawn) [Compound 18], in that order: under 0.02 µM, over 2 µM and 0.005 to 0.05 µM.
As for `COc1cc(N2CCC3CN(C)CC3C2)ccc1Nc1ncc(Cl)c(Oc2cccc3c2C(=O)N(C)C32CC2)n1` (stereo not drawn) [Compound 173], the results for the IC50 on FAK recombinant protein, in the test with PC3 cells [1] and in the test on PC3 cells [2] were under 0.02 µM, over 2 µM and under 0.005 µM, respectively.
Take `COc1cc(N2CC3(CCN(C)CC3)C2)ccc1Nc1ncc(Cl)c(Oc2cccc3c2C(=O)N(C)C32CCCC2)n1` [Compound 207]: the values for the IC50 on FAK recombinant protein, in the test on PC3 cells [1] and with PC3 cells [2] were under 0.02 µM, over 2 µM and 0.005 to 0.05 µM, respectively.
Consider `[2H]C([2H])([2H])N1CCC(C)(NC(=O)c2cc(OC)c(Nc3ncc(C(F)(F)F)c(Oc4cccc5c4C(=O)N(C)C54CC4)n3)cc2F)CC1` [Compound 43], for which the IC50 at FAK recombinant protein was under 0.02 µM; with PC3 cells [1], over 2 µM; in the test on PC3 cells [2] it was under 0.005 µM.
For `COc1cc(N2CCN(CC(=O)N(C)C)CC2)ccc1Nc1ncc(Cl)c(Oc2cccc3c2C(=O)N(C)C32CC2)n1` [Compound 144], in that order: under 0.02 µM, over 2 µM and under 0.005 µM.
Regarding `COc1cc(C(=O)NC2CC3(CCN(C)CC3)C2)c(F)cc1Nc1ncc(Cl)c(Oc2cccc3c2C(=O)N(C)C32CC2)n1` [Compound 132, 4-((5-chloro-4-((2′-methyl-3′-oxospiro[cyclopropane-1,1′-isoindolin]-4′-yl)oxy)pyrimidin-2-yl)amino)-2-fluoro-5-methoxy-N-(7-methyl-7-azaspiro[3.5]nonan-2-yl)benzamide], the IC50 is under 0.02 µM on FAK recombinant protein, over 2 µM in the test with PC3 cells [1] and 0.005 to 0.05 µM in the test with PC3 cells [2].
